Like-named read-outs stand apart in the source and are kept apart here.
Key:
[1] = tested on: HCT116/VM46 (multidrug and paclitaxel resistant subline of HCT116); assay: 72 hr ATP luminescence proliferation inhibition, HCT116/VM46; type: cell-based, human; settings: read-out: Proliferation Inhibition of Cancer Cells EC50, HCT116/VM46
Description: (§1) Proliferation inhibition was measured using a 72 hr ATP luminescence assay (Cheng et al., U.S. Pat. No. 8,394,922 B2 (2013)).
(§2) Proliferation inhibition was measured against: (a) H226 (human mesothelioma (lung) cancer cell line); (b) N87 (human gastric (stomach) cancer cell line); (c) OVCAR3 (human ovarian cancer cell line); (d) HCT116 (human colon cancer cell line); and (e) HCT116/VM46 (multidrug and paclitaxel resistant subline of HCT116).

[2] = tested on: H226 (human mesothelioma (lung) cancer cell line); assay: 72 hr ATP luminescence proliferation inhibition, H226; type: cell-based
Description: as §1, §2

[3] = tested on: OVCAR3 (human ovarian cancer cell line); assay: 72 hr ATP luminescence proliferation inhibition, OVCAR3; type: cell-based
Description: as §1, §2

[4] = tested on: HCT116 (human colon cancer cell line); assay: 72 hr ATP luminescence proliferation inhibition, HCT116; type: cell-based
Description: as §1, §2

[5] = tested on: N87 (human gastric (stomach) cancer cell line); assay: 72 hr ATP luminescence proliferation inhibition, N87; type: cell-based; settings: read-out: Proliferation Inhibition of Cancer Cells EC50, N87
Description: as §1, §2

[6] = read-out: Proliferation Inhibition of Cancer Cells EC50, H226
[7] = read-out: Proliferation Inhibition of Cancer Cells EC50, OVCAR3
[8] = read-out: Proliferation Inhibition of Cancer Cells EC50, HCT116
[9] = Homo sapiens, HCT-116/VM46, HCT116/VM46 cell line
[10] = Homo sapiens, NCI-H226, read-out: Proliferation Inhibition of Cancer Cells EC50, H226
[11] = Homo sapiens, OVCAR-3, read-out: Proliferation Inhibition of Cancer Cells EC50, OVCAR3
[12] = Homo sapiens, HCT-116, read-out: Proliferation Inhibition of Cancer Cells EC50, HCT116

CN1CCN(C(=O)c2cc3c4c(cc(O)c3[nH]2)N(C(=O)c2cc3cc(N)ccc3[nH]2)C[C@H]4CCl)CC1 [Ia-26]
EC50 ([1]; HCT116/VM46 cell line): 12 nM
EC50 [2, 6]: 9.5 nM
EC50 [3, 7]: 2.7 nM
EC50 [4, 8]: 4.1 nM

O=C(c1cc2c3c(cc(O)c2[nH]1)N(C(=O)c1cc2cc(OC4CCCC4)ccc2[nH]1)C[C@H]3CCl)N1CCOCC1 [Ia-15]
EC50 ([5]; Homo sapiens): 0.32 nM
EC50 [1, 9]: 0.26 nM
EC50 [2, 10]: 0.28 nM
EC50 [3, 11]: 0.21 nM
EC50 [4, 12]: 0.22 nM

Nc1ccc2[nH]c(C(=O)N3C[C@@H](CCl)c4c3cc(O)c3[nH]c(C(=O)N5CCNCC5)cc43)cc2c1 [Ia-25]
EC50 [5]: 38 nM
EC50 ([1]; HCT116/VM46 cell line): 24 nM
EC50 [2, 6]: 23 nM
EC50 [3, 7]: 22 nM
EC50 [4, 8]: 13 nM

COc1ccc2[nH]c(C(=O)N3C[C@@H](CCl)c4c3cc(O)c3[nH]c(C(=O)NCCOCCO)cc43)cc2c1 [Ia-22]
EC50 [5]: 1.9 nM
EC50 ([1]; HCT116/VM46 cell line): 1.2 nM
EC50 [2, 6]: 5.1 nM
EC50 [3, 7]: 1.1 nM
EC50 [4, 8]: 1.2 nM

CNCCN(C)C(=O)c1cc2c3c(cc(O)c2[nH]1)N(C(=O)c1cc2cc(OC)ccc2[nH]1)C[C@H]3CCl [Ia-21]
EC50 [5]: 2.2 nM
EC50 ([1]; HCT116/VM46 cell line): 0.5 nM
EC50 [2, 6]: 0.99 nM
EC50 [3, 7]: 1.2 nM
EC50 [4, 8]: 0.85 nM

CC[C@@H](CO)NC(=O)c1cc2c3c(cc(O)c2[nH]1)N(C(=O)c1cc2cc(OC)ccc2[nH]1)C[C@H]3CCl [Ia-23]
EC50 [5]: 2.6 nM
EC50 ([1]; HCT116/VM46 cell line): 1.9 nM
EC50 [2, 6]: 7.5 nM
EC50 [3, 7]: 1.1 nM
EC50 [4, 8]: 0.9 nM

CCOc1ccc2[nH]c(C(=O)N3C[C@@H](CCl)c4c3cc(O)c3[nH]c(C(=O)N5CCOCC5)cc43)cc2c1 [Ia-02]
EC50 ([5]; Homo sapiens): 0.097 nM
EC50 [1, 9]: 0.045 nM
EC50 [2, 10]: 0.042 nM
EC50 [3, 11]: 0.048 nM
EC50 [4, 12]: 0.045 nM

O=C(c1cc2c3c(cc(O)c2[nH]1)N(C(=O)c1cc2cc(-c4ccccc4)ccc2[nH]1)C[C@H]3CCl)N1CCOCC1 [Ia-12]
EC50 ([5]; Homo sapiens): 1.3 nM
EC50 [1, 9]: 0.29 nM
EC50 [2, 10]: 0.53 nM
EC50 [3, 11]: 0.54 nM
EC50 [4, 12]: 0.4 nM

O=C(c1cc2c3c(cc(O)c2[nH]1)N(C(=O)c1cc2cc(OC4CCOCC4)ccc2[nH]1)C[C@H]3CCl)N1CCOCC1 [Ia-14]
EC50 ([5]; Homo sapiens): 0.36 nM
EC50 [1, 9]: 0.77 nM
EC50 [2, 10]: 0.43 nM
EC50 [3, 11]: 0.1 nM
EC50 [4, 12]: 0.26 nM

COCCOc1ccc2[nH]c(C(=O)N3C[C@@H](CCl)c4c3cc(O)c3[nH]c(C(=O)N5CCOCC5)cc43)cc2c1 [Ia-01]
EC50 ([5]; Homo sapiens): 0.007 nM
EC50 [2, 10]: 0.014 nM

NCCOc1ccc2[nH]c(C(=O)N3C[C@@H](CCl)c4c3cc(O)c3[nH]c(C(=O)N5CCOCC5)cc43)cc2c1 [Ia-18]
EC50 ([5]; Homo sapiens): 48 nM
EC50 [1, 9]: 19 nM
EC50 [2, 10]: 32 nM
EC50 [3, 11]: 12 nM
EC50 [4, 12]: 25 nM

COCCCOc1ccc2[nH]c(C(=O)N3C[C@@H](CCl)c4c3cc(O)c3[nH]c(C(=O)N5CCOCC5)cc43)cc2c1 [Ia-09]
EC50 ([5]; Homo sapiens): 0.016 nM
EC50 [2, 10]: 0.055 nM
EC50 [3, 11]: 0.025 nM

COCOc1ccc(C(=O)Nc2ccc3nc(C(=O)N4C[C@@H](CCl)c5c4cc(O)c4[nH]c(C(=O)N6CCOCC6)cc54)cn3c2)cc1 [Ib-02]
EC50 [5]: 0.96 nM
EC50 ([1]; HCT116/VM46 cell line): 1.9 nM
EC50 [2, 6]: 1 nM
EC50 [3, 7]: 0.53 nM
EC50 [4, 8]: 0.64 nM

COc1ccc2[nH]c(C(=O)N3C[C@@H](CCl)c4c3cc(O)c3[nH]c(C(=O)N5CCOCC5)cc43)cc2c1 [Ia-11]
EC50 ([5]; Homo sapiens): 1.2 nM
EC50 [1, 9]: 0.92 nM
EC50 [2, 10]: 1 nM
EC50 [3, 11]: 0.52 nM
EC50 [4, 12]: 0.58 nM

Nc1ccc(C(=O)Nc2ccc3[nH]c(C(=O)N4C[C@@H](CCl)c5c4cc(O)c4[nH]c(C(=O)N6CCOCC6)cc54)cc3c2)cc1 [Id-02]
EC50 ([5]; Homo sapiens): 1.4 nM
EC50 [2, 10]: 1.2 nM

CNCCOc1ccc2[nH]c(C(=O)N3C[C@@H](CCl)c4c3cc(O)c3[nH]c(C(=O)N5CCOCC5)cc43)cc2c1 [Ia-17]
EC50 [5]: 36 nM
EC50 ([1]; HCT116/VM46 cell line): 25 nM
EC50 [2, 6]: 1.6 nM
EC50 [3, 7]: 18 nM
EC50 [4, 8]: 19 nM

O=C(Nc1ccc2nc(C(=O)N3C[C@@H](CCl)c4c3cc(O)c3[nH]c(C(=O)N5CCOCC5)cc43)cn2c1)c1ccc(O)cc1 [Ib-01]
EC50 [5]: 3.6 nM
EC50 ([1]; HCT116/VM46 cell line): 3.5 nM
EC50 [2, 6]: 2.39 nM
EC50 [3, 7]: 2.8 nM
EC50 [4, 8]: 3.2 nM

CCCOc1ccc2[nH]c(C(=O)N3C[C@@H](CCl)c4c3cc(O)c3[nH]c(C(=O)N5CCCOCC5)cc43)cc2c1 [Ia-28]
EC50 [5]: 0.066 nM
EC50 ([1]; HCT116/VM46 cell line): 0.09 nM
EC50 [2, 6]: 0.3 nM
EC50 [3, 7]: 0.058 nM
EC50 [4, 8]: 0.079 nM

— patent US10287291B2, “Seco-cyclopropapyrroloindole compounds, antibody-drug conjugates thereof, and methods of making and use” (priority 2016, dated 2019)
